# Test results published in publication PMC8949615, “Inhibitory Effect of Polyphenols from the Whole Green Jackfruit Flour against α-Glucosidase, α-Amylase, Aldose Reductase and Glycation at Multiple Stages and Their Interaction: Inhibition Kinetics and Molecular Simulations” (Molecules, 2022).
# “And” between values parts separate entries of the source, which are not always exact repeats. Equal values may be shown once. Marks after values point to notes of the source that are not given here.
# Assays:
# HSA/fructose system [1] = test: HSA glycation, early stage: fructosamine (NBT test); assay type: biochemical, human; design: dose or concentration left out as unconfirmed
# HSA/fructose system [2] = test: HSA glycation: protein thiol group protection; assay type: biochemical, human; conditions: for thiol shielding / thiol group protection: 100 µg/mL; for Thiols Group: HSA/fructose
# HSA/fructose system [3] = test: HSA glycation, intermediate stage: protein carbonyls; assay type: biochemical, human
# [4] = superoxide radical scavenging activity; conditions: mean ± SE
# [5] = DPPH radical scavenging activity; conditions: mean ± SE
# [6] = ABTS radical scavenging activity; conditions: mean ± SE
# yeast α-glucosidase = assay type: biochemical; conditions: mean ± SE
# aldose reductase [7] = biological target: T1, aldose reductase (Homo sapiens, UniProt P15121); test: aldose reductase inhibition kinetics (Lineweaver-Burk, secondary plot); assay type: biochemical; conditions: for Mode of Inhibition, Aldose reductase: from double reciprocal plot
# α-glucosidase = α-glucosidase inhibition kinetics (Lineweaver-Burk, secondary plot); assay type: biochemical, yeast; conditions: for Mode of Inhibition, α-Glucosidase: from double reciprocal plot; for Ki, α-Glucosidase: secondary plot, mean ± SE
# α-amylase = biological target: T2, α-amylase (Sus scrofa, UniProt P00690); test: α-amylase inhibition kinetics (Lineweaver-Burk, secondary plot); assay type: biochemical, porcine
# T2 sequence (P00690 16-511): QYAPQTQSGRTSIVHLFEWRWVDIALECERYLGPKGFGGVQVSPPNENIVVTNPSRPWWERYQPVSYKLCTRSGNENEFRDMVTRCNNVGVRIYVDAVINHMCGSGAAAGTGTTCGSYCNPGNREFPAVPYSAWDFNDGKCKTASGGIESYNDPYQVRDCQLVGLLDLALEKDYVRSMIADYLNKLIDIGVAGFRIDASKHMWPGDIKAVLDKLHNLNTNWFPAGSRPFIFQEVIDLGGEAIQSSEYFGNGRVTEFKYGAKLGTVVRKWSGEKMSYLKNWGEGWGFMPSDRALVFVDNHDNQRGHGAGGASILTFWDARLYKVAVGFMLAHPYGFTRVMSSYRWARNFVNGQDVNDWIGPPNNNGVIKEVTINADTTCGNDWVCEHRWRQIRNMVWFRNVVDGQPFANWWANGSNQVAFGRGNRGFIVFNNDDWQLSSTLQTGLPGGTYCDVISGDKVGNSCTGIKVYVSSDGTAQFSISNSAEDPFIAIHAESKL
# [8] = design: method as in earlier work; conditions: ref [9] of the supplement, cited from earlier work
# [9] = biological target: T3, type-VI B porcine pancreatic α-amylase (Sus scrofa, UniProt P00690); test: α-amylase inhibition assay; assay type: biochemical; conditions: mean ± SE
# T3 sequence (P00690 16-511): T2 sequence (P00690 16-511)
# aldose reductase [10] = biological target: T1, aldose reductase; test: aldose reductase inhibition assay; assay type: biochemical; conditions: mean ± SE
SMILES,Fructosamine (HSA/fructose system [1]; week 1),Fructosamine (HSA/fructose system [1]; week 2),Fructosamine (HSA/fructose system [1]; week 3),thiol shielding / thiol group protection (HSA/fructose system [2]),Thiols Group (HSA/fructose system [2]; week 1),Thiols Group (HSA/fructose system [2]; week 2),Thiols Group (HSA/fructose system [2]; week 3),Protein carbonyl Content (HSA/fructose system [3]; week 1),Protein carbonyl Content (HSA/fructose system [3]; week 2),Protein carbonyl Content (HSA/fructose system [3]; week 3),EC50 Radical Scavenging Activities Superoxide [4],EC50 Radical Scavenging Activities DPPH [5],EC50 Radical Scavenging Activities ABTS [6],IC50 α-Glucosidase (yeast α-glucosidase),"Mode of Inhibition, Aldose reductase (aldose reductase [7])","Vmax, Aldose reductase (aldose reductase [7]; inhibitor at IC20)","Vmax, Aldose reductase (aldose reductase [7]; inhibitor at IC40)","Vmax, Aldose reductase (aldose reductase [7]; inhibitor at IC60)","Mode of Inhibition, α-Glucosidase (α-glucosidase)","Vmax, α-Glucosidase (α-glucosidase; inhibitor at IC20)",further results
"N=C(N)NN [Aminoguanidine, aminoguanidine, reference compound]",28.50 ± 1.16 ^d mmol/mg Protein,30.00 ± 1.00 ^d mmol/mg Protein,31.75 ± 0.97 ^d mmol/mg Protein,71%,0.95 ± 1.46 ^b nmol/mg protein,1.04 ± 1.00 ^b nmol/mg protein,1.17 ± 0.89 ^b nmol/mg protein,0.64 ± 0.54 ^e nmol/mg protein,0.66 ± 1.05 ^e nmol/mg protein,0.70 ± 1.11 ^e nmol/mg protein,–,–,–,–,–,–,–,–,–,–,–
"COc1ccc(O)c(C(C)(C)C)c1 [BHA, butylated hydroxyl anisole, reference compound]",–,–,–,–,–,–,–,–,–,–,64.75 ± 0.13 ^d μg/mL,40.25 ± 0.30 ^d μg/mL,31.00 ± 0.55 ^d μg/mL,–,–,–,–,–,–,–,–
"O=C(O)C=Cc1ccc(O)c(O)c1 [Caffeic acid, 3-(3,4-Dihydroxyphenyl)-2-propenoic acid]",26.82 ± 0.14 ^a mmol/mg Protein,27.06 ± 0.13 ^a mmol/mg Protein,28.02 ± 1.04 ^a mmol/mg Protein,74–83%,0.69 ± 0.55 ^a nmol/mg protein,0.79 ± 0.05 ^a nmol/mg protein,0.80 ± 0.88 ^a nmol/mg protein,0.49 ± 2.17 ^b nmol/mg protein,0.57 ± 1.25 ^b nmol/mg protein,0.57 ± 2.22 ^b nmol/mg protein,30.13 ± 2.05 ^b μg/mL,18.50 ± 0.08 ^b μg/mL,12.44 ± 1.60 ^b μg/mL,8.00 ± 0.40 ^a µg/mL,Non-competitive,13.35 10^3(µM/min)^−1,10.15 10^3(µM/min)^−1,5.05 10^3(µM/min)^−1,Competitive,39.98 10^3(µM/min)^−1,"Vmax, α-Glucosidase (α-glucosidase; inhibitor at IC40): 40.40 10^3(µM/min)^−1; Vmax, α-Glucosidase (α-glucosidase; inhibitor at IC60): 40.37 10^3(µM/min)^−1; Ki, α-Glucosidase (α-glucosidase; listed as CA): 1.03 mg and 0.52 ± 0.02 mg; Vmax, α-Amylase (α-amylase; inhibitor at IC40): 25.75 10^3(µM/min)^−1"
O=c1c(O)c(-c2ccc(O)c(O)c2)oc2cc(O)cc(O)c12 [Quercetin],–,–,–,–,–,–,–,–,–,–,–,–,–,–,–,–,–,–,–,–,"adverse effects on serum electrolytes, renal, haematological, and liver function blood parameters ([8]; >1000 mg/day for several months): no adverse effects; safety and tolerability in human clinical trials [8]: safe and well-tolerated"
"COc1cc(C(=O)O)cc(OC)c1O [Syringic acid, 4-Hydroxy-3,5-dimethoxybenzoic acid]",26.30 ± 1.21 ^b mmol/mg Protein,26.99 ± 1.90 ^b mmol/mg Protein,26.41 ± 1.18 ^b mmol/mg Protein,74–83%,0.64 ± 0.62 ^a nmol/mg protein,0.76 ± 0.53 ^a nmol/mg protein,0.78 ± 0.34 ^a nmol/mg protein,0.49 ± 1.06 ^c nmol/mg protein,0.54 ± 0.62 ^c nmol/mg protein,0.54 ± 1.32 ^c nmol/mg protein,28.00 ± 1.19 ^a μg/mL,16.00 ± 0.13 ^a μg/mL,11.40 ± 2.04 ^a μg/mL,7.50 ± 1.05 ^a µg/mL,Non-competitive,34.47 10^3(µM/min)^−1,20.05 10^3(µM/min)^−1,11.50 10^3(µM/min)^−1,Competitive,33.55 10^3(µM/min)^−1,"IC50 [9]: 127 µM; Ki (aldose reductase [7]; secondary plot, mean ± SE): 8.28 µM; Vmax, α-Glucosidase (α-glucosidase; inhibitor at IC40): 33.43 10^3(µM/min)^−1; Vmax, α-Glucosidase (α-glucosidase; inhibitor at IC60): 33.79 10^3(µM/min)^−1; Ki, α-Glucosidase (α-glucosidase): 0.96 ± 0.22 mg; Ki, α-Glucosidase (α-glucosidase; listed as SA): 1.25 mg; IC50 (aldose reductase [10]): 15.1 µM; Mode of Inhibition, α-Amylase (α-amylase; from double reciprocal plot): Competitive; Vmax, α-Amylase (α-amylase; inhibitor at IC20): 51.10 10^3(µM/min)^−1; Vmax, α-Amylase (α-amylase; inhibitor at IC40): 51.11 10^3(µM/min)^−1; Vmax, α-Amylase (α-amylase; inhibitor at IC60): 50.95 10^3(µM/min)^−1; Ki (α-amylase; secondary plot, mean ± SE): 6.31 µM"
